{"source": "ChEMBL document CHEMBL5370570", "about": "“HIV-1 Integrase Inhibitor, Dihydroobionin B, and the Investigation of Its Extraordinary Specific Rotation” (J Nat Prod, 2023)", "key": {"Bipolaris oryzae": {"tested_on": "Bipolaris oryzae", "assay": "Antifungal activity against Bipolaris oryzae at 50 ug assessed as zone of inhibition incubated after 5 days at 25 degreeC by paper disk method", "assay_type": "functional", "details": "for zone of inhibition at 50 µg/disc: 120 h, time 5 day, read-out: IZ"}, "[1]": {"molecular_target": "Human immunodeficiency virus type 1 integrase (Human immunodeficiency virus 1, UniProt Q7ZJM1)", "sequence (Q7ZJM1 whole entry)": "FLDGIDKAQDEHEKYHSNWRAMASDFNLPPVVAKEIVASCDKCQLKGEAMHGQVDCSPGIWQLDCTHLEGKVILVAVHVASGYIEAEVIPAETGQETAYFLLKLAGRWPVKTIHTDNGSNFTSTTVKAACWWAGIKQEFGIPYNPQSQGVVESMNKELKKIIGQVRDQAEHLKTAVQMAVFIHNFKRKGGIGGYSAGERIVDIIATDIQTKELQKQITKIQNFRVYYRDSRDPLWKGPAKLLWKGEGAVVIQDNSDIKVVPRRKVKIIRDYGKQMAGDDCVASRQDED", "assay": "Inhibition of HIV-1 integrase expressed in HEK293T co-transfected with CS-II Luci vector incubated for 48 hrs by Bright-Glo luciferase assay", "assay_type": "cell-based"}, "[2]": {"assay": "Cytotoxicity against human HEK293T cells assessed as reduction in cell viability incubated for 48 hrs by WST assay", "assay_type": "toxicity, cell-based, HEK-293T", "details": "read-out: LC50"}}, "note": "Activity calls are given as the source filed them. The rule behind the calls is not given here."}
{"smiles": "CCCC/C=C/c1c(OC)cc(=O)oc1C", "values": [{"measurement": "zone of inhibition at 50 µg/disc", "setting": "Bipolaris oryzae", "result": 12, "unit": "mm"}, {"measurement": "IC50", "setting": "[1]", "result": 250, "unit": "µM"}]}
{"smiles": "CCCCCc1cc(O)c(C)c(O)c1C=O", "values": [{"measurement": "zone of inhibition at 50 µg/disc", "setting": "Bipolaris oryzae", "result": 12, "unit": "mm"}, {"measurement": "IC50", "setting": "[1]", "result": 13, "unit": "µM"}]}
{"smiles": "CCCCCCC[C@H]1Cc2cc3c(c(O)c2CO1)C(=O)C(=O)C(OC)=C3", "values": [{"measurement": "CC50 at 48 h", "setting": "[2]", "result": "> 250", "unit": "µM"}, {"measurement": "inhibition zone (IZ)", "setting": "Bipolaris oryzae; dose 50.0 µg, time 5.0 day", "result": "inactive"}, {"measurement": "IC50", "setting": "[1]", "result": 0.44, "unit": "µM"}]}
{"smiles": "CCCCCCc1c(OC)cc(=O)oc1C", "values": [{"measurement": "zone of inhibition at 50 µg/disc", "setting": "Bipolaris oryzae", "result": 12, "unit": "mm"}, {"measurement": "IC50", "setting": "[1]", "result": 15, "unit": "µM"}]}
